Results from PubChem BioAssay (NCI).
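Exposure lasted 48 hours, with cells grown in 96-well plates and compounds tested at five concentrations. TGI: total growth inhibition.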

How the values were obtained:
Assay in all cases: NCI tumour cell line growth inhibition, 48 h
U251 CNS = test system: U251 CNS
HCT-116 colon = test system: HCT-116 colon
MALME-3M melanoma = test system: MALME-3M melanoma
KM12 colon = test system: KM12 colon
M14 melanoma = test system: M14 melanoma
SF-539 CNS = test system: SF-539 CNS
UACC-62 melanoma = test system: UACC-62 melanoma
NCI-H460 lung = test system: NCI-H460 lung
MDA-MB-435 = test system: MDA-MB-435
HL-60(TB) leukemia = test system: HL-60(TB) leukemia
MDA-N = test system: MDA-N
SN12C renal = test system: SN12C renal
OVCAR-3 ovarian = test system: OVCAR-3 ovarian
DU-145 prostate = test system: DU-145 prostate
PC-3 prostate = test system: PC-3 prostate
A498 renal = test system: A498 renal
COLO 205 colon = test system: COLO 205 colon
MOLT-4 leukemia = test system: MOLT-4 leukemia
SK-MEL-2 melanoma = test system: SK-MEL-2 melanoma
SF-295 CNS = test system: SF-295 CNS
T-47D breast = test system: T-47D breast
SK-OV-3 ovarian = test system: SK-OV-3 ovarian
OVCAR-8 ovarian = test system: OVCAR-8 ovarian
TK-10 renal = test system: TK-10 renal
SNB-75 CNS = test system: SNB-75 CNS
HCC-2998 colon = test system: HCC-2998 colon
SR leukemia = test system: SR leukemia
A549 NSCLC = test system: A549 NSCLC
EKVX NSCLC = test system: EKVX NSCLC
K-562 leukemia = test system: K-562 leukemia
CAKI-1 renal = test system: CAKI-1 renal
NCI/ADR-RES ovarian = test system: NCI/ADR-RES ovarian
UACC-257 melanoma = test system: UACC-257 melanoma
NCI-H226 lung = test system: NCI-H226 lung
HOP-92 NSCLC = test system: HOP-92 NSCLC
HS 578T breast = test system: HS 578T breast
HT29 colon = test system: HT29 colon
NCI-H23 lung = test system: NCI-H23 lung
IGROV1 ovarian = test system: IGROV1 ovarian
HOP-62 NSCLC = test system: HOP-62 NSCLC
OVCAR-5 ovarian = test system: OVCAR-5 ovarian
CCRF-CEM leukemia = test system: CCRF-CEM leukemia
ACHN renal = test system: ACHN renal
SK-MEL-28 melanoma = test system: SK-MEL-28 melanoma
SNB-19 CNS = test system: SNB-19 CNS
LOX IMVI melanoma = test system: LOX IMVI melanoma
SW-620 colon = test system: SW-620 colon
UO-31 renal = test system: UO-31 renal
MCF7 breast = test system: MCF7 breast
SK-MEL-5 melanoma = test system: SK-MEL-5 melanoma
HCT-15 colon = test system: HCT-15 colon
MDA-MB-231 breast = test system: MDA-MB-231 breast
OVCAR-4 ovarian = test system: OVCAR-4 ovarian
786-0 renal = test system: 786-0 renal
BT-549 breast = test system: BT-549 breast

## COc1cc(Cc2cc3c(c(C(=O)O)c2Br)OCO3)cc(OC)c1OC
U251 CNS
  TGI: > 100 µM
HCT-116 colon
  TGI: > 100 µM
MALME-3M melanoma
  TGI: > 100 µM
KM12 colon
  TGI: > 100 µM
M14 melanoma
  TGI: > 100 µM
SF-539 CNS
  TGI: 91.1 µM
UACC-62 melanoma
  TGI: > 100 µM
NCI-H460 lung
  TGI: > 100 µM
MDA-MB-435
  TGI: > 100 µM
HL-60(TB) leukemia
  TGI: 62.2 µM
MDA-N
  TGI: 67 µM
SN12C renal
  TGI: > 100 µM
OVCAR-3 ovarian
  TGI: > 100 µM
DU-145 prostate
  TGI: > 100 µM
PC-3 prostate
  TGI: > 100 µM
A498 renal
  TGI: > 100 µM
COLO 205 colon
  TGI: > 100 µM
MOLT-4 leukemia
  TGI: > 100 µM
SK-MEL-2 melanoma
  TGI: > 100 µM
SF-295 CNS
  TGI: > 100 µM
T-47D breast
  TGI: > 100 µM
SK-OV-3 ovarian
  TGI: > 100 µM
OVCAR-8 ovarian
  TGI: > 100 µM
TK-10 renal
  TGI: > 100 µM
SNB-75 CNS
  TGI: > 100 µM
HCC-2998 colon
  TGI: > 100 µM
SR leukemia
  TGI: 89 µM
A549 NSCLC
  TGI: > 100 µM
EKVX NSCLC
  TGI: > 100 µM
K-562 leukemia
  TGI: > 100 µM
CAKI-1 renal
  TGI: > 100 µM
NCI/ADR-RES ovarian
  TGI: > 100 µM
UACC-257 melanoma
  TGI: > 100 µM
NCI-H226 lung
  TGI: > 100 µM
HOP-92 NSCLC
  TGI: > 100 µM
HS 578T breast
  TGI: > 100 µM
HT29 colon
  TGI: > 100 µM
NCI-H23 lung
  TGI: > 100 µM
IGROV1 ovarian
  TGI: > 100 µM
HOP-62 NSCLC
  TGI: > 100 µM
OVCAR-5 ovarian
  TGI: > 100 µM
CCRF-CEM leukemia
  TGI: > 100 µM
ACHN renal
  TGI: > 100 µM
SK-MEL-28 melanoma
  TGI: > 100 µM
SNB-19 CNS
  TGI: > 100 µM
LOX IMVI melanoma
  TGI: > 100 µM
SW-620 colon
  TGI: > 100 µM
UO-31 renal
  TGI: > 100 µM
MCF7 breast
  TGI: > 100 µM
SK-MEL-5 melanoma
  TGI: > 100 µM
HCT-15 colon
  TGI: > 100 µM
MDA-MB-231 breast
  TGI: > 100 µM
OVCAR-4 ovarian
  TGI: > 100 µM
786-0 renal
  TGI: > 100 µM
BT-549 breast
  TGI: > 100 µM
